Drawing on ChEMBL document CHEMBL1159277, “Sesquiterpene/quinol from a New Zealand liverwort, Riccardia crassa” (J Nat Prod, 1995), this text covers IC50 and Activity for one molecule.

SMILES strings stand for the structures. Activity calls are given as the source filed them. The calls are words filed in the database; no cut-off is given here.

The test system of experiment [1] is P388. Kind of experiment: Cytotoxicity against mouse P388 cells. The class given is functional, cell-based.
Experiment [2] deals with Candida albicans. Kind of experiment: Antifungal activity against Candida albicans at 60 ug/disk. The class given is functional, organism-based.
Experiment [3] relates to Trichophyton mentagrophytes. Kind of experiment: Antifungal activity against Trichophyton mentagrophytes at 60 ug/disk. The class given is functional, organism-based.

The term IC50 denotes the concentration that gives 50% inhibition. Lower therefore signals greater potency. In experiment [1], `CC(C)=C/C=C/[C@@]1(C)CCC[C@]2(C)Oc3ccc(O)cc3C[C@@H]12` [RICCARDIPHENOL C] yielded a half-maximal inhibitory concentration (IC50) of over 25 µg/mL. The result in experiment [2] and in experiment [3] was inactive.
